In patent publication US20030100508A1, “Carbohydrate epitope mimic compounds and uses thereof” (priority 1999, published 2003):

Tests used:
[1] = L2 glycolipid binding to immobilized CD4 peptide; settings: L2 glycolipid 3 μg/ml, detected with L2-412
Protocol: The ability of isolated L2/HNK-1 glycolipid to bind to immobilized CD-4 peptide was tested. CD-4 peptide was immobilized in water at different concentrations and dried onto microtiter plates overnight. The microtiter plates were blocked with 1% BSA in PBS, incubated with 3 ug/ml L2 glycolipid for 1.5 hours at room temperature, and washed with PBS. Bound L2 glycolipid was detected with L2-412 antibody followed by HRP-linked secondary antibody.
It was determined whether L2 glycolipid could bind substrate coated CD-4 peptide. CD4 peptide was coated onto microtiter plates by coating with serial dilutions of CD4 peptide (1 mg/ml 1:1 in EtOH) and allowed to dry overnight. The wells were incubated with L2-glycolipid (3 μg/ml) for 1 hour at RT, L2-412 antibody (1: 1000) then added and further incubated for 3 hours at RT. Goat anti-rat antibody was then added, incubated 2 hours at RT and detected by HRP-linked secondary antibody.
The CD-4 peptide was conjugated to Ovalbumin (by similar methods as for BSA conjugation described in Materials and Methods) to generate CD4-OV, and binding experiments were performed to assess binding of conjugated peptide to laminin and L2 glycolipid. In particular, it was necessary to confirm that CD4 peptide and laminin compete directly in binding to L2/HNK-1 glycolipids. […]

laminin = molecular target: T1, laminin (Mus musculus, UniProt P19137); test: Competition of L2 glycolipid binding to immobilized laminin by CD4 peptide; settings: L2 glycolipids 3 μg/ml, varying CD-4 peptide
T1 construct: purchased Gibco/BRL
Protocol: The CD-4 peptide was conjugated to Ovalbumin (by similar methods as for BSA conjugation described in Materials and Methods) to generate CD4-OV, and binding experiments were performed to assess binding of conjugated peptide to laminin and L2 glycolipid. In particular, it was necessary to confirm that CD4 peptide and laminin compete directly in binding to L2/HNK-1 glycolipids. In this set of experiments, microtiter plates were coated with serial dilutions of either CD4-OV or laminin (each 10 μg/ml 1:1 in EtOH, allowed to dry overnight). The coated plates were then incubated in the following combinations: (a) CD4-OV coated plates with L2 glycolipid (3 μg/ml, 1 hr, RT); (b) laminin coated plates with L2 glycolipid (3 μg/ml. 1 hr, RT); and (c) laminin coated plates with CD-4-OV (1 μg/ml) and L2 glycolipids (3 μg/ml) for 1 hr at RT. Similar to the previous set of experiments L2-412 antibody was added (1:1000, 3 hr, RT), followed by HRP-conjugated-goat anti-rat antibody (2 hrs, RT) and detection by HRP-linked secondary antibody. The results (not shown) confirmed that CD4 peptide and laminin compete directly in binding to L2/HNK-1 glycolipids.
To further assess whether the CD-4 peptide could inhibit L2 glycolipid binding to laminin, a fixed amount of L2 glycolipid was incubated with immobilized laminin, in the presence of varying concentrations of CD-4 peptide. […]

## RASSSKSWITFDLKNKEVSVK [CD4 peptide]
[1]
  L2 glycolipid binding to immobilized CD4 peptide (words): binds to CD4 peptide in a concentration-dependent manner
[1]; listed as CD-4 peptide
  L2 glycolipid binding to immobilized CD4 peptide (words): binds L2 glycolipid in a concentration dependent manner
laminin
  competition of L2 glycolipid binding to immobilized laminin: competes with L2 glycolipid binding to immobilized laminin in a concentration-dependent manner
